Reference: patent US20150250883A1, “COMPOSITIONS AND METHODS TO IMPROVE THE HOMING AND GRAFTING OF HEMATOPOETIC STEM CELLS” (7 HILLS PHARMA, LLC, priority 2014, published 2015)

What was measured:
[1] = test system: Jurkat cells (integrin expressing) adhering to immobilized CS1-BSA; experiment: Static adhesion of integrin expressing cells to an immobilized integrin ligand; assay type: cell-based
Description: The effective concentration of a representative agonist compound, THI0019, in a cell carrier was evaluated by a static adhesion of integrin expressing cells to an immobilized integrin ligand in vitro, as described below.
The effective concentration of THI0019, a representative agonist compound used in this example, was evaluated by a static adhesion of integrin expressing cells to an immobilized integrin ligand. The 25 amino acid alternatively spliced sequence of fibronectin named connecting segment 1 (CS1) was synthesized and conjugated to BSA. CS1-BSA at 0.3 μg/mL in 50 μL of a representative cell carrier was added to wells of a 96-well plate and allowed to coat overnight at 4° C. The representative cell carrier is isotonic Tris Buffered Saline comprising 50 mM Tris-HCl (pH 7.4), 150 mM NaCl and 1 mM MgCl2 and is a model isotonic buffer. Plates were washed with the cell carrier and blocked with 2 wt. % BSA for 1 h. 32×10^6 of Jurkat cells were labeled for 30 minutes with calcein-AM (Molecular Probes), washed 2 times with the cell carrier, resuspended in 8 mL of the cell carrier, and divided equally between two tubes. One tube of the cell suspension was treated with 40 μL DMSO (control) and the other with 40 μL of 1 mM THI0019 in DMSO. The control containing tube and the THI0019 containing tube were each further divided equally among four eppendorf tubes (Tubes 1-4 for each group) such that each contained 4×10^6 of the cells in 1 mL of the control or the THI0019 containing cell carrier. Tube 1 from each group was not further processed (“no treatment”). Tubes 2-4 were centrifuged at 100×G for 5 min at RT. The supernatant was carefully removed with a pipet and each cell pellet was resuspended in 1 mL of the cell carrier without the agonist compound. Tube 2 was not further processed (“pellet”). Tubes 3-4 were again centrifuged at 100×G for 5 min. The supernatant was carefully removed with a pipet and each cell pellet was resuspended in 1 mL of the cell carrier without the agonist compound. Tube 3 was not further processed (“1 wash”). Tube 4 was again centrifuged at 100×G for 5 min. The supernatant was carefully removed with a pipet and the cell pellet was resuspended in 1 mL of the cell carrier without the agonist compound. Tube 4 was not further processed (“2 wash”). The final concentrations of THI0019 in the respective cell carriers for no treatment, pellet, 1 wash, and 2 wash were 10 μM, […]. […] After 30-minute incubation at 37° C., the plates were washed 3 times with binding cell carrier, the adherent cells were lysed, and fluorescence was measured on a Tecan Safire plate reader. The number of cells bound was determined by standard curves correlating fluorescence to cell number generated with the same mixtures used for the assay.

[2] = test system: TF-1 cells on immobilized recombinant human VCAM-1; conditions: interpretation of cited detachment assay data; cited from earlier work
[3] = static adhesion, FIG. 1, printed as 'at least 1 femtomolar (fM) to 1 μM'

CCCC[C@@H](COC(=O)N(Cc1cccs1)Cc1cccs1)NC(=O)N[C@@H](CC(=O)OC)c1ccc2c(c1)OCO2 [THI0019, methyl (6S,10S)-10-(1,3-benzodioxol-5-yl)-6-butyl-3,8-dioxo-1-(2-thienyl)-2-(2-thienylmethyl)-4-oxa-2,7,9-triazadodecan-12-oate]
ability of agonist treated cells to bind to a cognate ligand after exposure ([1]; after exposure to the agonist in cell carrier): enhanced ability to bind to a cognate ligand within minutes | adhesion potential of cells after dilution/washing of compound from cell carrier ([1]; compound reduced by multiple 1000-fold serial dilutions to as low as 1 fM in cell carrier): retained the ability to exhibit enhanced adhesion potential | effective amount of the agonist compound present in the cell carrier, lower end of range [1, 3]: 1 fM | effective amount of the agonist compound present in the cell carrier, upper end of range [1, 3]: 1 µM | effect on VCAM-1 / VLA-4 interaction (applicant's reading of Vanderslice data) [2]: stabilizes the VCAM-1 and VLA-4 interaction and upon endogenous ligand binding, the compound is displaced
